Data set [1] relates to human esophageal cancer cell line KYSE-270. Briefly: Subcutaneous xenograft of human esophageal cancer cell line KYSE-270 in NMRI nude mice: tumor growth. The class given is in vivo, mouse. The settings on record: for Tumor shrinkage [x/y]: Paclitaxel 10 mg/Kg q7d. How it is done: 1.1. Model: Subcutaneous xenograft of human esophageal cancer cell line KYSE-270 in NMRI nude mice.
1.3. Cells: KYSE-270 is an esophageal cancer cell line (Public Health England, catalog number: 94072021). Cells were cultured in T175 tissue culture flasks containing 5% CO2 at 37° C. The medium was RPMI 1640+HAM F12 (1:1) supplemented with 2% FCS and 2 mM Glutamax. Passage was performed three times a week at a ratio of 1:2.
1.4. Mice: Mice were 8 to 10 week old female mice (BomTac: NMRI-Foxn1^nu) purchased from Taconic®, Denmark. Upon arrival in the animal room, the mice were allowed to acclimate for at least 5 days before being used for assay. The animals were housed under standard conditions (temperature: 21.5±1.5° C., humidity: 55+10%), 7 to 10 mice for each group. A standard diet and autoclaved tap water were provided for ad libitum feeding. A subcutaneous microchip implanted under isoflurane anesthesia was used to identify each mouse.
1.5. Random establishment of tumors: To establish subcutaneous tumors, KYSE-270 cells were harvested by centrifugation, washed and resuspended in PBS+5% FCS at a concentration of 5×10^7 cells/ml. Then 100 l of cell suspension containing 5×10^6 cells was injected subcutaneously into the right flank of mice (1 site per mouse). When tumors were well established and reached a volume of 94 to 252 mm^3, mice were randomly assigned to the treatment group and the control group (13 days after cell injection).
1.6. Administration: BI 853520 was suspended in 0.5% hydroxyethyl cellulose, which was administered intragastrically through gavage needle every day, and the dosage was 10 mL/Kg body weight. Paclitaxel was dissolved in saline (0.9% NaCl), which was administered intravenously in a volume of 10 ml/kg body weight. The suspension of BI853520 could be used for up to 7 days. Paclitaxel solution was stored at 6° C. and used for up to 14 days.
(§1) 1.7. Monitoring tumor growth and side effects: Tumor diameters were measured with calipers three times a week. The volume [mm^3] of each tumor was calculated according to the equation “tumor volume=length×diameter^2×π/6”. To monitor the side effects of the treatment, the mice were checked daily for abnormalities and their body weights were measured three times a week. For ethical reasons, animals with tumors larger than 1.5 cm in diameter, ulcerated tumors, or 20% body weight loss were euthanized.
Statistical assessment of tumor volume and body weight on day 13 was performed. Animal number 1 (control group) was excluded from the statistical evaluation because of weight loss and had to be euthanized early (day 9). Measured tumor volume was used as the target variable in the statistical analysis. The number of animals and the median, minimum and maximum tumor volumes in each group were calculated. For a quick overview of possible treatment effects, the median tumor volume for each treatment group T and the median tumor volume for the control group C were used to calculate TGI: TGI=100×[(Cd−C1)−(Td−T1)]/(Cd−C1) • wherein, C1, T1=median tumor volume in control and treatment groups at the start of the assay (day 1). • Cd, Td=median tumor volume in control and treatment groups at the end of the assay (day 13).
(§2) The wilcoxon test was used for comparison. For body weight, the percent change relative to initial body weight on day 1 was used as the target variable for statistical analysis. The number of animals, and the median, minimum and maximum weight changes in each group were calculated.
(§3) One-sided test to compare all treatment groups with control group was performed for observing: • reduction in tumor volume (inhibition of tumor growth, efficacy parameter) and • reduction in weight changes (weight loss, tolerance parameters).
Within each subtopic, p-values for the efficacy parameter were compared and adjusted for multiple times according to Bonferroni-Holm. The p-value for the tolerance parameter was kept constant so as not to overlook possible side effects. […]
For orientation: In xenograft studies the graft and the host belong to different species.

The nature of data set [2]: Body weight change (tolerability) in the KYSE-270 xenograft study. The class given is in vivo, mouse. As for the experimental part:
as §1, §2, §3
Within each subtopic, p-values for the efficacy parameter were compared and adjusted for multiple times according to Bonferroni-Holm. The p-value for the tolerance parameter was kept constant so as not to overlook possible side effects. Significance level was fixed at α=5%. A p-value (adjusted) of less than 0.05 was considered to show a statistically significant difference between groups, and 0.05≤p-value<0.10 was considered as an indicative difference. Statistical evaluations were performed using the SAS software package version 9.4 (SAS Institute Inc., Cary NC, USA).

On to `CC(=O)O[C@H]1C(=O)[C@@]2(C)[C@H]([C@H](OC(=O)c3ccccc3)[C@]3(O)C[C@H](OC(=O)[C@H](O)[C@@H](NC(=O)c4ccccc4)c4ccccc4)C(C)=C1C3(C)C)[C@]1(OC(C)=O)CO[C@@H]1C[C@@H]2O` [Paclitaxel, reference compound], for which the “Tumor shrinkage [x/y]” value in data set [1] (day 13) is given as 0/7; in data set [1] (day 13, listed as paclitaxel) it was “none”. Moreover, the inhibition of tumour growth (TGI) (as a rule, how far tumour growth fell short of that in controls) in data set [1] (Paclitaxel 10 mg/Kg q7d i.v., day 13) amounted to 2%. Also, the Median tumor volume in data set [1] (paclitaxel 10 mg/kg once a week, day 13 (start 190 mm^3)) is 1033 mm^3. Further, in data set [2] (Paclitaxel 10 mg/Kg q7d, day 13 versus day 1), the “Change in median weight” value is listed as −9.7%. In data set [2] (Paclitaxel 10 mg/kg once a week, day 13, given as a decrease), the “Reduction in the median body weight” value was found to be 9.7%.

The values are drawn from patent publication US12257251B2, “Use of FAK inhibitor in preparation of drug for treating tumors having NRAS mutation” (INXMED (NANJING) CO., LTD., priority 2019, dated 2025).
